pIC50: −log10 of the molar value. Where “and” joins values, the source holds several entries; their conditions need not be identical. Equal entries are not always repeated.
Test system: PANC-1 complex spheroid growth, percent test/control
Test: Anticancer human tumor PANC-1 cell line growth inhibition [Asc];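 also: spheroids exposed to agents for 7 days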;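 as to viability, T/C: percent viability relative to DMSO vehicle wells taken as 100%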
Conditions: for viability, T/C: stronger effect = lower value; active = viability on the fitted dose curve at most 10% of control; inactive = the rest
Outline: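 Complex solid-tumor spheroids incorporating human endothelial and mesenchymal stem cells received single agents or combinations over half-log dilution ranges anchored to clinical Cmax.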

[1] = curve of first compound, second compound 0.0316 µM
[2] = curve of first compound, second compound 0.1 µM
[3] = curve of first compound, second compound 0.316 µM
[4] = curve of first compound, second compound 1 µM
[5] = curve of first compound, second compound 0.00316 µM
[6] = curve of first compound, second compound 0.01 µM
[7] = second compound 0.00316 µM, first compound 0.0316 µM
[8] = second compound 0.00316 µM, first compound 0.1 µM
[9] = second compound 0.01 µM, first compound 0.0316 µM
[10] = second compound 0.01 µM, first compound 0.1 µM
[11] = second compound 0.0316 µM, first compound 0.0316 µM
[12] = second compound 0.0316 µM, first compound 0.1 µM
[13] = second compound 0.1 µM, first compound 0.0316 µM
[14] = second compound 0.1 µM, first compound 0.1 µM
[15] = second compound 0.316 µM, first compound 0.0316 µM
[16] = second compound 0.316 µM, first compound 0.1 µM
[17] = second compound 1 µM, first compound 0.0316 µM
[18] = second compound 1 µM, first compound 0.1 µM

Cc1nc(N2CCC3(CC2)COC(C)C3N)c(CO)nc1Sc1ccnc(N)c1Cl (stereo not drawn) + Cc1c(S(C)(=O)=O)c(-c2cc(F)cc(N3CCN(c4ccc(NS(=O)(=O)c5ccc(NC(CCN6CCC(C(=O)OCCCP(=O)(O)O)CC6)CSc6ccccc6)c(S(=O)(=O)C(F)(F)F)c5)cc4)CC3)c2)c(-c2ccc(Cl)cc2)n1C(C)C
inactive: viability, T/C (second compound 0.0316 µM, first compound 0.00949 µM) 87.6% | viability, T/C (second compound 0.0316 µM, first compound 0.03 µM) 96.6% | viability, T/C (second compound 0.0316 µM, first compound 0.0949 µM) 88.2% | viability, T/C (second compound 0.0316 µM, first compound 0.3 µM) 94.1% | viability, T/C (second compound 0.0316 µM, first compound 0.949 µM) 89.5% | viability, T/C (second compound 0.0316 µM, first compound 3 µM) 95.2% | viability, T/C (second compound 0.1 µM, first compound 0.00949 µM) 92.8% | viability, T/C (second compound 0.1 µM, first compound 0.03 µM) 88.3% | viability, T/C (second compound 0.1 µM, first compound 0.0949 µM) 83.3% | viability, T/C (second compound 0.1 µM, first compound 0.3 µM) 90.1% | viability, T/C (second compound 0.1 µM, first compound 0.949 µM) 87.8% | viability, T/C (second compound 0.1 µM, first compound 3 µM) 84.7% | viability, T/C (second compound 0.316 µM, first compound 0.00949 µM) 103% | viability, T/C (second compound 0.316 µM, first compound 0.03 µM) 93.4% | viability, T/C (second compound 0.316 µM, first compound 0.0949 µM) 89.8% | viability, T/C (second compound 0.316 µM, first compound 0.3 µM) 87.6% | viability, T/C (second compound 0.316 µM, first compound 0.949 µM) 91.8% | viability, T/C (second compound 0.316 µM, first compound 3 µM) 86.7% | viability, T/C (second compound 1 µM, first compound 0.00949 µM) 102% | viability, T/C (second compound 1 µM, first compound 0.03 µM) 91.8% | viability, T/C (second compound 1 µM, first compound 0.0949 µM) 85.9% | viability, T/C (second compound 1 µM, first compound 0.3 µM) 84.5% | viability, T/C (second compound 1 µM, first compound 0.949 µM) 88.2% | viability, T/C (second compound 1 µM, first compound 3 µM) 85.5% | viability, T/C (second compound 3.16 µM, first compound 0.00949 µM) 101% | viability, T/C (second compound 3.16 µM, first compound 0.03 µM) 94.5% | viability, T/C (second compound 3.16 µM, first compound 0.0949 µM) 86.2% | viability, T/C (second compound 3.16 µM, first compound 0.3 µM) 92.9% | viability, T/C (second compound 3.16 µM, first compound 0.949 µM) 84.6% | viability, T/C (second compound 3.16 µM, first compound 3 µM) 77.8% | viability, T/C (second compound 10 µM, first compound 0.00949 µM) 175% | viability, T/C (second compound 10 µM, first compound 0.03 µM) 177% | viability, T/C (second compound 10 µM, first compound 0.0949 µM) 161% | viability, T/C (second compound 10 µM, first compound 0.3 µM) 161% | viability, T/C (second compound 10 µM, first compound 0.949 µM) 164% | viability, T/C (second compound 10 µM, first compound 3 µM) 147%
< 5.52: pIC50 [1] | pIC50 [2] | pIC50 [3] | pIC50 [4] | pIC50 (curve of first compound, second compound 3.16 µM) | pIC50 (curve of first compound, second compound 10 µM)

Cc1nc(N2CCC3(CC2)COC(C)C3N)c(CO)nc1Sc1ccnc(N)c1Cl (stereo not drawn)
inactive: viability, T/C (compound 0.00949 µM) 101% and 93.1% and 109% | viability, T/C (compound 0.03 µM) 83.2% and 88.3% and 85.1% | viability, T/C (compound 0.0949 µM) 102% and 90.2% and 91% | viability, T/C (compound 0.3 µM) 82.2% and 84.3% and 94.8% | viability, T/C (compound 0.949 µM) 91.4% and 83.7% and 86.9% | viability, T/C (compound 3 µM) 87.5% and 86% and 99.3%
< 5.52: pIC50 (curve of compound)

O=C(c1cc(Cc2n[nH]c(=O)c3ccccc23)ccc1F)N1CCN(C(=O)C2CC2)CC1 + CNC(C)C(=O)NC1CN(S(=O)(=O)c2cccc(S(=O)(=O)N3CCC4CCC(C(=O)NC(c5ccccc5)c5ccccc5)N4C(=O)C(NC(=O)C(C)NC)C3)c2)CCC2CCC(C(=O)NC(c3ccccc3)c3ccccc3)N2C1=O
inactive: viability, T/C [7] 132% | viability, T/C [8] 111% | viability, T/C (second compound 0.00316 µM, first compound 0.316 µM) 134% | viability, T/C (second compound 0.00316 µM, first compound 1 µM) 133% | viability, T/C (second compound 0.00316 µM, first compound 3.16 µM) 97.3% | viability, T/C (second compound 0.00316 µM, first compound 10 µM) 63.4% | viability, T/C [9] 109% | viability, T/C [10] 100% | viability, T/C (second compound 0.01 µM, first compound 0.316 µM) 105% | viability, T/C (second compound 0.01 µM, first compound 1 µM) 104% | viability, T/C (second compound 0.01 µM, first compound 3.16 µM) 103% | viability, T/C (second compound 0.01 µM, first compound 10 µM) 98.4% | viability, T/C [11] 107% | viability, T/C [12] 96.2% | viability, T/C (second compound 0.0316 µM, first compound 0.316 µM) 96.7% | viability, T/C (second compound 0.0316 µM, first compound 1 µM) 110% | viability, T/C (second compound 0.0316 µM, first compound 3.16 µM) 112% | viability, T/C (second compound 0.0316 µM, first compound 10 µM) 91.2% | viability, T/C [13] 91.2% | viability, T/C [14] 100% | viability, T/C (second compound 0.1 µM, first compound 0.316 µM) 92.3% | viability, T/C (second compound 0.1 µM, first compound 1 µM) 99.1% | viability, T/C (second compound 0.1 µM, first compound 3.16 µM) 101% | viability, T/C (second compound 0.1 µM, first compound 10 µM) 81.8% | viability, T/C [15] 103% | viability, T/C [16] 103% | viability, T/C (second compound 0.316 µM, first compound 0.316 µM) 89.2% | viability, T/C (second compound 0.316 µM, first compound 1 µM) 95.4% | viability, T/C (second compound 0.316 µM, first compound 3.16 µM) 99.2% | viability, T/C (second compound 0.316 µM, first compound 10 µM) 93.3% | viability, T/C [17] 93.7% | viability, T/C [18] 106% | viability, T/C (second compound 1 µM, first compound 0.316 µM) 87.8% | viability, T/C (second compound 1 µM, first compound 1 µM) 93.2% | viability, T/C (second compound 1 µM, first compound 3.16 µM) 89.9% | viability, T/C (second compound 1 µM, first compound 10 µM) 85.2%
< 5.00: pIC50 [5] | pIC50 [6] | pIC50 [1] | pIC50 [2] | pIC50 [3] | pIC50 [4]

NC1CCC(NC2CC2c2ccccc2)CC1 (stereo not drawn) + CNC(C)C(=O)NC1CN(S(=O)(=O)c2cccc(S(=O)(=O)N3CCC4CCC(C(=O)NC(c5ccccc5)c5ccccc5)N4C(=O)C(NC(=O)C(C)NC)C3)c2)CCC2CCC(C(=O)NC(c3ccccc3)c3ccccc3)N2C1=O
< 7.00: pIC50 [5] | pIC50 [6] | pIC50 [1] | pIC50 [2] | pIC50 [3] | pIC50 [4]
inactive: viability, T/C (second compound 0.00316 µM, first compound 0.000316 µM) 99.3% | viability, T/C (second compound 0.00316 µM, first compound 0.001 µM) 94% | viability, T/C (second compound 0.00316 µM, first compound 0.00316 µM) 90% | viability, T/C (second compound 0.00316 µM, first compound 0.01 µM) 87.5% | viability, T/C [7] 99.4% | viability, T/C [8] 87.8% | viability, T/C (second compound 0.01 µM, first compound 0.000316 µM) 95% | viability, T/C (second compound 0.01 µM, first compound 0.001 µM) 95.9% | viability, T/C (second compound 0.01 µM, first compound 0.00316 µM) 88.5% | viability, T/C (second compound 0.01 µM, first compound 0.01 µM) 85% | viability, T/C [9] 93.5% | viability, T/C [10] 94.4% | viability, T/C (second compound 0.0316 µM, first compound 0.000316 µM) 95% | viability, T/C (second compound 0.0316 µM, first compound 0.001 µM) 96.8% | viability, T/C (second compound 0.0316 µM, first compound 0.00316 µM) 85.7% | viability, T/C (second compound 0.0316 µM, first compound 0.01 µM) 86.5% | viability, T/C [11] 84.5% | viability, T/C [12] 93.4% | viability, T/C (second compound 0.1 µM, first compound 0.000316 µM) 98.9% | viability, T/C (second compound 0.1 µM, first compound 0.001 µM) 102% | viability, T/C (second compound 0.1 µM, first compound 0.00316 µM) 96.5% | viability, T/C (second compound 0.1 µM, first compound 0.01 µM) 93% | viability, T/C [13] 92.8% | viability, T/C [14] 87.8% | viability, T/C (second compound 0.316 µM, first compound 0.000316 µM) 102% | viability, T/C (second compound 0.316 µM, first compound 0.001 µM) 97.9% | viability, T/C (second compound 0.316 µM, first compound 0.00316 µM) 108% | viability, T/C (second compound 0.316 µM, first compound 0.01 µM) 84.9% | viability, T/C [15] 97.8% | viability, T/C [16] 93.5% | viability, T/C (second compound 1 µM, first compound 0.000316 µM) 94.6% | viability, T/C (second compound 1 µM, first compound 0.001 µM) 76.7% | viability, T/C (second compound 1 µM, first compound 0.00316 µM) 99.3% | viability, T/C (second compound 1 µM, first compound 0.01 µM) 85.9% | viability, T/C [17] 90.7% | viability, T/C [18] 92.3%
